# Source: US20180188270A1, “DIAGNOSTIC TEST FOR ALZHEIMER'S DISEASE BASED ON IDENTIFICATION OF A PROTEOLYTIC PATHWAY” (Health Research, Inc., priority 2015, published 2018)
# Several values for one entry are separate records, joined by “and”; a condition that tells them apart may be missing. Identical values can stand only once. Entries after “also recorded” stand apart in the source; their conditions may differ.
# How the values were obtained:
# Type in all cases: in vivo, mouse
# [1] = tested on: coagulation factors FX, FII and FVII; assay: Coagulation proteases in J20 AD mice by western blotting; details: AD mice at 1 month and 3 months of age, EP 0.5 mg/kg i.p. daily 5 days
# Source text: (§1) B6.Cg-Tg(PDGFB-APPSwlnd) 20 Lms/2 JMjax mice, also known as J20 mice, were purchased from Jackson Laboratory. J20 mice express a mutant form of the human Aβ precursor protein (APP) bearing both the Swedish (K670N/M671L) and the Indiana (V717F) mutations (APPSwlnd) (Mucke et al., J Neurosci, 2000, 20, 4050-4058). Neural expression of the transgenic insert is directed by the human platelet-derived growth factor beta polypeptide (PDGFB) promoter. J20 mice in C57BL/6 background (male hemizygotes) were bred to wild type (WT) female C57BL/6J mice (also purchased from Jackson Laboratory). F1 mice were genotyped by PCR at weaning to identify the hemizygotes and the non-transgenic littermates. Mice at age of 1 month and 3 months were treated once daily with vehicle or EP (0.5 mg/kg) i.p for 5 days. EP was given in PBS (0.1 ml per 20 g body weight). Blood was collected from the mice at 6 h after the last PBS/EP dose by cardiac puncture at the time of sacrifice by carbon dioxide. Blood was collected into K3 EDTA-containing tubes (Multivette 600 from Sarstedt).
# plasma PEPD = assay: Plasma PEPD concentration in mice by ELISA; details: for average plasma level of total PEPD, higher than with hPEPD alone: hPEPD 0.2 mg/kg 1 h after last EP dose
# Description: Animal studies. All animal studies were performed in accordance with protocols approved by the Institutional Animal Care and Use Committee at Roswell Park Cancer Institute. Male mice at 7-8 weeks of age were used, including wild type (WT) mice (C57BL/6), and mice deficient in FXII (C57BL/6-FXII^−/−) or FVII (C57BL/6-FVII^tTA/tTA). WT C57BL/6 mice were purchased from Taconic. C57BL/6-FXII^−/− mice and C57BL/6-FVII^tTA/tTA mice were bred in our own facility and genotyped. The breeders were kindly provided by Dr. Francis J. Castellino at University of Notre Dame. […] CCl4 was dissolved in corn oil, whereas all other substances were dissolved in PBS. The vehicle or the test substance was given to mice in 0.1 ml volume per 20 g body weight. Blood was collected from the mice at specific times by cardiac puncture at the time of sacrifice by carbon dioxide, and heart, liver and kidney were also collected from some of the mice. Blood was collected into K3 EDTA-containing tubes (Multivette 600 from Sarstedt), unless specified otherwise. All blood samples were promptly centrifuged to obtain plasma samples.
# Measurement of plasma levels of PEPD, SRC, Aβ1-42 and FI. […] The plates were washed three times with phosphate buffered saline tween-20 (PBST) and the coated wells were blocked by incubation with 200 μl/well of 1% BSA in PBS for at least 2 h at RT. After another round of wash with PBST, the plates were incubated with appropriately diluted Aβ1-42 standard, SRC standard or plasma samples (100 μl/well) for 2 h at RT. The plates were then washed with PBST and incubated with an anti-Aβ1-42 rabbit polyclonal antibody (sc-9129) or anti-SRC rabbit monoclonal antibody (2123) at 100 μl/well for 2 h at RT. The plates were washed again with PBST, and each well was incubated with a goat anti-rabbit IgG-HRP conjugate (100 μl) for 1 h at RT. After yet another round of wash with PBST, each well was incubated with 100 μl of HRP substrate 3,3′,5,5′-tetramethylbenzedine (Cell Signaling, 7004). Upon adequate color development, 100 μl of stop solution (Cell Signaling, 7002) was added to each well, and absorbance at 450 nm was promptly recorded by a microtiter plate reader. Plasma FI concentration was determined using an assay kit (400-374-130050) from GenWay Biotech, following the manufacturer's instruction.
# plasma hAβ1-40 = assay: Plasma hAβ1-40 level in mice by ELISA; details: EP 0.5 mg/kg i.p. daily 5 days, hAβ1-40 40 μg/kg 1 h after fifth dose, 6 h
# Description: Male C57BL/6 mice (7-8 weeks of age) were purchased from Taconic and were treated with vehicle (PBS) and EP (0.5 mg/kg) i.p. once daily for 5 days. […] Blood was collected into K3 EDTA-containing tubes (Multivette 600 from Sarstedt). […] The plates were washed three times with phosphate buffered saline with tween-20 (PBST) and the coated wells were blocked by incubation with 200 μl/well of 1% BSA in PBS for at least 2 h at room temperature (RT). […] The plates were washed again with PBST, and each well was incubated with a goat anti-rabbit IgG-HRP conjugate (100 μl) for 1 h at RT.
# [2] = tested on: plasma coagulation factors FXII, PK, HMWK, FXI, FIX, FX, FII, FI and FVII; assay: Changes in plasma coagulation factors in mice by IB (FI by ELISA)
# Description: Animal studies. […] Male mice at 7-8 weeks of age were used, including wild type (WT) mice (C57BL/6), and mice deficient in FXII (C57BL/6-FXII^−/−) or FVII (C57BL/6-FVII^tTA/tTA). WT C57BL/6 mice were purchased from Taconic. C57BL/6-FXII^−/− mice and C57BL/6-FVII^tTA/tTA mice were bred in our own facility and genotyped. […] CCl4 was dissolved in corn oil, whereas all other substances were dissolved in PBS. The vehicle or the test substance was given to mice in 0.1 ml volume per 20 g body weight. Blood was collected from the mice at specific times by cardiac puncture at the time of sacrifice by carbon dioxide, and heart, liver and kidney were also collected from some of the mice. Blood was collected into K3 EDTA-containing tubes (Multivette 600 from Sarstedt), unless specified otherwise. All blood samples were promptly centrifuged to obtain plasma samples.
# The plates were washed three times with phosphate buffered saline tween-20 (PBST) and the coated wells were blocked by incubation with 200 μl/well of 1% BSA in PBS for at least 2 h at RT. […] The plates were washed again with PBST, and each well was incubated with a goat anti-rabbit IgG-HRP conjugate (100 μl) for 1 h at RT. After yet another round of wash with PBST, each well was incubated with 100 μl of HRP substrate 3,3′,5,5′-tetramethylbenzedine (Cell Signaling, 7004). Upon adequate color development, 100 μl of stop solution (Cell Signaling, 7002) was added to each well, and absorbance at 450 nm was promptly recorded by a microtiter plate reader. Plasma FI concentration was determined using an assay kit (400-374-130050) from GenWay Biotech, following the manufacturer's instruction.
# IB. Tissue samples were mixed with RIPA buffer (25 mM Tris-HCl, pH 7.6, 150 mM NaCl, 1% Nonidet P-40, 1% sodium deoxycholate, 0.1% SDS), supplemented with 2 mM phenylmethanesulfonyl fluoride, a proteinase inhibitor mix (Roche Applied Science) and phosphatase inhibitor Cocktail 2 (Sigma-Aldrich). Tissue samples were stroked in a Dounce homogenizer, and the homogenates were cleared by centrifugation at 12,000×g for 15 min at 4° C. Protein concentrations in all samples were measured by the BCA assay kit. Plasma samples were used without further processing (20 μl per sample). Each sample was mixed with 4× loading dye, heated for 5 min at 95° C. and then resolved by SDS-PAGE (8-12.5%). […] The proteins were transferred to polyvinylidene fluoride membrane, probed with specific antibodies and detected using the ECL Plus Kit (Amersham) or the SuperSignal West Pico Kit (Thermo Scientific).
# [3] = tested on: total plasma Aβ1-40 and Aβ1-42; assay: Total plasma level of Aβ1-40 and Aβ1-42 in J20 AD mice and WT mice by ELISA; details: for increase in total plasma levels of Aβ1-40 and Aβ1-42: EP 0.5 mg/kg i.p. daily 5 days
# Source text: as §1
# Total plasma levels of Aβ1-40 and Aβ1-42 were measured by ELISA. Briefly, 96-well ELISA plates were coated with an anti-Aβ1-42 monoclonal antibody (sc-374527) at 0.25 μg/100 μl/well at 4° C. overnight. The plates were washed three times with phosphate buffered saline tween-20 (PBST) and the coated wells were blocked by incubation with 200 μl/well of 1% BSA in PBS for at least 2 h at RT. […] The plates were then washed with PBST and incubated with an anti-Aβ1-42 rabbit polyclonal antibody (sc-9129) at 100 μl/well for 2 h at RT. The plates were washed again with PBST, and each well was incubated with a goat anti-rabbit IgG-HRP conjugate (100 μl) for 1 h at RT. After yet another round of wash with PBST, each well was incubated with 100 μl of HRP substrate 3,3′,5,5′-tetramethylbenzedine (Cell Signaling, 7004). Upon adequate color development, 100 μl of stop solution (Cell Signaling, 7002) was added to each well, and absorbance at 450 nm was promptly recorded by a microtiter plate reader.
# plasma Aβ1-42 = assay: Plasma Aβ1-42 concentration in mice by ELISA; details: WT mice, EP 2.5 mg/kg i.p. daily 5 days
# Description: Animal studies. All animal studies were performed in accordance with protocols approved by the Institutional Animal Care and Use Committee at Roswell Park Cancer Institute. Male mice at 7-8 weeks of age were used, including wild type (WT) mice (C57BL/6), and mice deficient in FXII (C57BL/6-FXII^−/−) or FVII (C57BL/6-FVII^tTA/tTA). WT C57BL/6 mice were purchased from Taconic. C57BL/6-FXII^−/− mice and C57BL/6-FVII^tTA/tTA mice were bred in our own facility and genotyped. […] CCl4 was dissolved in corn oil, whereas all other substances were dissolved in PBS. The vehicle or the test substance was given to mice in 0.1 ml volume per 20 g body weight. Blood was collected from the mice at specific times by cardiac puncture at the time of sacrifice by carbon dioxide, and heart, liver and kidney were also collected from some of the mice. Blood was collected into K3 EDTA-containing tubes (Multivette 600 from Sarstedt), unless specified otherwise. All blood samples were promptly centrifuged to obtain plasma samples.
# [4] = WT mice, EP 2.5 mg/kg i.p. daily 5 days
# [5] = WT mice, EP 2.5 mg/kg daily 5 days, hPEPD 0.2 mg/kg
substance,measurement,setting,value
enoxaparin [EP],"EP effect on activation of FX, FII and FVII",[1],"inhibits the activation of FX, FII and FVII"
same,"average plasma level of total PEPD in WT mice, lower than in FXII−/− mice","plasma PEPD; EP pretreatment, 6 h after hPEPD 0.2 mg/kg i.p.",14.6%
same,effect of EP on plasma PEPD level,"plasma PEPD; FXII−/− mice, EP 2.5 mg/kg i.p. daily 5 days",did not show a significant effect
same,"plasma level of mPEPD, increase by EP",plasma PEPD; [4],2.0 fold and 2.1 fold
same,"average plasma level of total PEPD, higher than with hPEPD alone","plasma PEPD; WT mice, EP 2.5 mg/kg i.p. daily 5 days, 1 h after hPEPD",35.2 fold
same,"average plasma level of total PEPD, higher than with hPEPD alone","plasma PEPD; WT mice, EP 2.5 mg/kg i.p. daily 5 days, 24 h after hPEPD",63.8 fold
same,average plasma level of total PEPD,"plasma PEPD; WT mice, EP pretreatment, 6 h after hPEPD 0.2 mg/kg i.p.",19.7 nM
same,reduction of hPEPD dose allowed by EP without decreasing its plasma concentration,"plasma PEPD; mice, plasma concentration required for inhibition of ERBB2-driven tumors",at least 50 fold
same,elevation of average plasma hAβ1-40 concentration by EP pretreatment,plasma hAβ1-40,77.4 fold
same,"EP inhibition of hPEPD-induced slight activation of FX, FII and FVII",[2]; FXII−/− mice,largely inhibited by EP
same,"EP inhibition of activation of FX, FII and FVII","[2]; WT mice treated with hAβ1-42 40 μg/kg, EP 2.5 mg/kg daily 5 days","greatly inhibited the activation of FX, FII and FVII"
same,"EP prevention of hPEPD-induced activation of FXII, PK, HMWK, FXI and FIX",[2]; [5],"failed to prevent hPEPD from activating FXII, PK, HMWK, FXI and FIX"
same,"EP prevention of hPEPD-induced activation or cleavage of FX, FII, FI and FVII",[2]; [5],"prevented hPEPD from causing activation or cleavage of FX, FII, FI and FVII"
same,effect of EP itself on plasma coagulation factors,[2]; [4],had no effect on any of the FXII-FVII pathway factors measured; also recorded: had no effect on these factors
same,ratio of EP-induced increase in total plasma levels of Aβ1-40 and Aβ1-42 in AD mice to WT mice,[3]; 1 month of age,8.71-9.32
same,ratio of EP-induced increase in total plasma levels of Aβ1-40 and Aβ1-42 in AD mice to WT mice,[3]; 3 month of age,47.53-56.85
same,increase in total plasma levels of Aβ1-40 and Aβ1-42,"[3]; AD mice, 1 month of age",about 2.3 fold
same,increase in total plasma levels of Aβ1-40 and Aβ1-42,"[3]; AD mice, 3 month of age",3.6-4.2 fold
same,increase in total plasma levels of Aβ1-40 and Aβ1-42,[3]; WT mice at both 1 month and 3 months of age,about 1.6 fold
same,"average plasma level of endogenous mAβ1-42, higher in EP-treated mice than in control mice",plasma Aβ1-42,1.7 fold
same,"plasma level of total Aβ1-42, increase after EP plus hAβ1-42","plasma Aβ1-42; hAβ1-42 40 μg/kg 1 h after last dose, 6 h",406.0 fold
